In PMC3426363 (Pharmaceutical research, 2011):
Values belong to the compound of their own block, whether it stands above or below them.

Tests used:
UGT1A3 [1] = target: T1, UGT1A3 (Homo sapiens, UniProt P35503); conditions: published observation; cited from earlier work
T1 sequence (P35503 29-534): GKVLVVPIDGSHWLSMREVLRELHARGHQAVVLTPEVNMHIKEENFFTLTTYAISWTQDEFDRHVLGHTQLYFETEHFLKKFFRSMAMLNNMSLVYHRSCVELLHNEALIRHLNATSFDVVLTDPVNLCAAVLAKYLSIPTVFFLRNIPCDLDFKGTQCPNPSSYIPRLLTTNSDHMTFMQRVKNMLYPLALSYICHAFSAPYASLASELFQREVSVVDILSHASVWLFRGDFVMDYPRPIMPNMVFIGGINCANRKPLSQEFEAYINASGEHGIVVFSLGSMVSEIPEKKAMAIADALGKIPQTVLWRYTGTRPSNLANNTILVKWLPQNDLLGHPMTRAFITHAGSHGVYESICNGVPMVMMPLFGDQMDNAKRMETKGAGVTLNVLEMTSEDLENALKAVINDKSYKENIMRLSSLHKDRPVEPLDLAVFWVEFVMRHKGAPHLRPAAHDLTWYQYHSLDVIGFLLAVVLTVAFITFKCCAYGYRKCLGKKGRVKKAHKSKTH

UGT1A9 [2] = target: T2, UGT1A9 (Homo sapiens, UniProt O60656); conditions: ref 32 (Chen et al.); cited from earlier work
T2 sequence (O60656 26-530): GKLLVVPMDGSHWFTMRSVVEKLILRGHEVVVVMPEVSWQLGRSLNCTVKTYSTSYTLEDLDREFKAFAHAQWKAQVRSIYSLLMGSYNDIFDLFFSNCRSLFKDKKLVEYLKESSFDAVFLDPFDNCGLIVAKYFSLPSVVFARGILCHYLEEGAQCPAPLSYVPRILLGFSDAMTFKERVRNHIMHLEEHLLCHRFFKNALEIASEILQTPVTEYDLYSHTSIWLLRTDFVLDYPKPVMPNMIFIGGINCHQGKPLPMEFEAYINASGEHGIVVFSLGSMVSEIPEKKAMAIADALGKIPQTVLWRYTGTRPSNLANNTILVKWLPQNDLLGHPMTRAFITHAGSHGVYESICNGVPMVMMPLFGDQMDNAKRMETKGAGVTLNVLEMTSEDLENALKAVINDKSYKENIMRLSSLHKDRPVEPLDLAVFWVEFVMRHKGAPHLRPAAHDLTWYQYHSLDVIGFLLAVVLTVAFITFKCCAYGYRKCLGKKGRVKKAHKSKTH

UGT1A8 = target: T3, UGT1A8 (Homo sapiens, UniProt Q9HAW9); assay: UGT1A8 glucuronidation kinetics of flavonols; type: in vitro ADME; conditions: formation of 3-O-glucuronide
T3 sequence (Q9HAW9 26-530): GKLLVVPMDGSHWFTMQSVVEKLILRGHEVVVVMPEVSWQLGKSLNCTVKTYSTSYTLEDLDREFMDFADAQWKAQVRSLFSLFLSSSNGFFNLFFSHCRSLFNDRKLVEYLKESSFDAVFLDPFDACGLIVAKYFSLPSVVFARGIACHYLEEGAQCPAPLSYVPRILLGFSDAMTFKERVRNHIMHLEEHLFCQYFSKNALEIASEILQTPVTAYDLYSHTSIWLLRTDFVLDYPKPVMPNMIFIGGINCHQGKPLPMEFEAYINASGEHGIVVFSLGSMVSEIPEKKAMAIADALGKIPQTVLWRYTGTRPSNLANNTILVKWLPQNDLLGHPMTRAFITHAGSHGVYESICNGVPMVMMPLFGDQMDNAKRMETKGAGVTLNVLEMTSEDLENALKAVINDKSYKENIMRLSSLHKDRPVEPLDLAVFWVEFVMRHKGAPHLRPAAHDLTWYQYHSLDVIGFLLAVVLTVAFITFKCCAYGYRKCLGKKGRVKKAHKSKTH

UGT1A10 = target: T4, UGT1A10 (Homo sapiens, UniProt Q9HAW8); assay: UGT1A10 glucuronidation kinetics of flavonols; type: in vitro ADME; conditions: formation of 3-O-glucuronide, substrate inhibition constant
T4 sequence (Q9HAW8 26-530): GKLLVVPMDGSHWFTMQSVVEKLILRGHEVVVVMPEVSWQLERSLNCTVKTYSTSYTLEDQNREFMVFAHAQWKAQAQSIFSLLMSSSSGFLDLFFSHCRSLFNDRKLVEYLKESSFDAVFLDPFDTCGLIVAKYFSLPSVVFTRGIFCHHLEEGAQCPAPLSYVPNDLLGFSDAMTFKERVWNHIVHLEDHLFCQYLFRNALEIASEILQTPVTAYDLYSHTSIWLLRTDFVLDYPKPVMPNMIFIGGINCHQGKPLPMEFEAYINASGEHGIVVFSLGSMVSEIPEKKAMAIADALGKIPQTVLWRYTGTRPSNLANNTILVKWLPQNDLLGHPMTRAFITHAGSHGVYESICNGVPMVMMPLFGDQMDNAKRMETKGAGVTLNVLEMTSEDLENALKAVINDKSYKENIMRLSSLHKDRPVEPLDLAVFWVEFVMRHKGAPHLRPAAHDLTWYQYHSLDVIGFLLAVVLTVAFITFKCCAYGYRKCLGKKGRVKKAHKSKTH

UGT1A3 [3] = target: T1, UGT1A3; assay: UGT1A3 glucuronidation kinetics of flavonols; type: in vitro ADME; conditions: substrate inhibition constant
UGT1A9 [4] = target: T2, UGT1A9; assay: UGT1A9 glucuronidation kinetics of flavonols; type: in vitro ADME
UGT1A7 = target: T5, UGT1A7 (Homo sapiens, UniProt Q9HAW7); assay: UGT1A7 glucuronidation kinetics of flavonols; type: in vitro ADME; conditions: formation of 3-O-glucuronide, substrate inhibition constant
T5 sequence (Q9HAW7 26-530): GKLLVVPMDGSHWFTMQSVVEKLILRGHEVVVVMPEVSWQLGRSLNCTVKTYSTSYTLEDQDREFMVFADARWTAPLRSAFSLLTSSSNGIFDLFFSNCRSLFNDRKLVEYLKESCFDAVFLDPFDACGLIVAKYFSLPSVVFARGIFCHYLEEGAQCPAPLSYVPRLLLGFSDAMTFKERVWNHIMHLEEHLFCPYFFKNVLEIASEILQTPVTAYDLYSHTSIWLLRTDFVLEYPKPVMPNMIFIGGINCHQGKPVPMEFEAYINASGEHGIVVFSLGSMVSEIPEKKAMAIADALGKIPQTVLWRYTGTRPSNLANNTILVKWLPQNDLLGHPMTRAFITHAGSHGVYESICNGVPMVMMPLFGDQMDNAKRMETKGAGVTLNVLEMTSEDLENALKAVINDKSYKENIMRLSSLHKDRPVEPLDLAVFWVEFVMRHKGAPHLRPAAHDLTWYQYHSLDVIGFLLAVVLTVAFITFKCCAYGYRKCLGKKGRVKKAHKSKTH

UGT1A1 [5] = target: T6, UGT1A1 (Homo sapiens, UniProt P22309); assay: UGT1A1 glucuronidation kinetics of flavonols; type: in vitro ADME; conditions: for Ks: substrate inhibition constant
T6 sequence (P22309 26-533): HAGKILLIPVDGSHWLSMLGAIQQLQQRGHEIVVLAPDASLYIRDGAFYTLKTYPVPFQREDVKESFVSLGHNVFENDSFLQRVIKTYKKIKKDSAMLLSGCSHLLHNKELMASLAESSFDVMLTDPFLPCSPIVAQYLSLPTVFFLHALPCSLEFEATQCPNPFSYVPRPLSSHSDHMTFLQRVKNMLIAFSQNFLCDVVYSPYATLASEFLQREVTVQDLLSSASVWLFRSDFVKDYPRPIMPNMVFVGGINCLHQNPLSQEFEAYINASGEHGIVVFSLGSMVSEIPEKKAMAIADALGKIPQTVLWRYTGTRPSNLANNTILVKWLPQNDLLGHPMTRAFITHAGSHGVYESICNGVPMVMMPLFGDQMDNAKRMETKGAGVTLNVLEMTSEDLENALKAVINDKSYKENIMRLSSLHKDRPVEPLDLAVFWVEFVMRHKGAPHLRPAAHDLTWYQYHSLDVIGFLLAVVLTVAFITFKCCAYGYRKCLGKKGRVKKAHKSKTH

UGT1A1 [6] = target: T6, UGT1A1; assay: Inhibition of UGT1A1-mediated glucuronidation of 3-hydroflavone; type: biochemical; conditions: 40 µM inhibitor; data not shown

Compound: COc1ccc(C2CC(=O)c3c(O)cc(O)cc3O2)cc1O (centres unmarked) [hesperetin, 4'-methoxy-3',5,7-trihydroxyflavanone]
glucuronide generated (UGT1A3 [1]): only 7-O-glucuronide was generated

Compound: O=c1c(O)c(-c2ccc(O)c(O)c2)oc2cc(O)cc(O)c12 [quercetin, 3,5,7,3’,4’-pentahydroxyflavone]
regioselectivity of glucuronidation (UGT1A9 [2]): 3-O-glucuronidation was most efficient with the highest CLint value

Compound: O=c1c(O)c(-c2ccccc2)oc2cc(O)cc(O)c12 [3,5,7THF, 3,5,7-trihydroxyflavone]
Vmax (UGT1A8): 3.89 nmol/mg/min | Ks (UGT1A8; substrate inhibition constant): 37.28 ± 10.12 µM | Ks (UGT1A10): 73.48 ± 17.82 µM | Ks (UGT1A3 [3]; formation of 3-O-glucuronide): 17.86 ± 6.33 µM | Ks (UGT1A3 [3]; formation of 7-O-glucuronide): 9.95 ± 9.16 µM | Km (UGT1A9 [4]; formation of 3-O-glucuronide): 0.68 ± 0.16 µM | Vmax (UGT1A9 [4]; formation of 3-O-glucuronide): 7.41 ± 0.89 nmol/mg/min | Ks (UGT1A9 [4]; formation of 3-O-glucuronide, substrate inhibition constant): 7.43 ± 2.12 µM | Km (UGT1A9 [4]; formation of 7-O-glucuronide): 0.54 ± 0.08 µM | Vmax (UGT1A9 [4]; formation of 7-O-glucuronide): 2.56 ± 0.10 nmol/mg/min | Ks (UGT1A7): 55.75 ± 7.27 µM | Vmax (UGT1A1 [5]; formation of 3-O-glucuronide): 0.82 nmol/mg/min | Ks (UGT1A1 [5]; formation of 3-O-glucuronide): 2.64 ± 0.89 µM | Vmax (UGT1A1 [5]; formation of 7-O-glucuronide): 4.59 nmol/mg/min | Ks (UGT1A1 [5]; formation of 7-O-glucuronide): 1.22 ± 0.19 µM

inhibition of glucuronidation of 3-hydroflavone by UGT1A1 (UGT1A1 [6]): completely inhibited | Ks (UGT1A1 [5]; formation of 3-O-glucuronide): 5.41 ± 0.93 µM | Ks (UGT1A1 [5]; formation of 7-O-glucuronide): 3.53 ± 0.86 µM
Compound: O=c1c(O)c(-c2ccc(O)cc2)oc2cc(O)ccc12 [3,7,4’THF, 3,7,4’-tryhydroxyflavone]
